Literature values, collected in patent publication US20120016021A1, “METHODS OF TREATING FRAGILE X SYNDROME, DOWN'S SYNDROME, AUTISM AND RELATED DISORDERS” (XENOPORT, INC., priority 2010, published 2012).

How the values were obtained:
Fmr1 KO mice = conditions: low doses (1 mg/kg), audiogenically induced seizures
[1] = administered orally
[2] = animal models

Compound | locomotor activity (Fmr1^/− animals; baclofen at 3 mg/kg, Fmr1^/− animals) | dose needed for comparable locomotor suppression in animals reared by Fmr1^+/+ mothers versus Fmr1^/− animals (Fmr1^/− animals; relative to 3 mg/kg) [fold] | seizure incidence (Fmr1 KO mice) | elimination half-life [1] [h] | absorption following administration into the colon [2] | social isolation and communication (autistic children) | irritability subscale of the Aberrant Behavior Checklist and Clinical Global Impressions-Improvement (autistic children; placebo-controlled)
NCC(CC(=O)O)c1ccc(Cl)cc1 (racemic) [baclofen, 4-amino-3-(4-chlorophenyl)butanoic acid] | inhibits locomotor activity | 2 | significantly inhibits seizure incidence | 3 to 4 | poorly absorbed | – | –
Cc1nc2n(c(=O)c1CCN1CCC(c3noc4cc(F)ccc34)CC1)CCCC2 [risperidone] | – | – | – | – | – | not improved | significant improvement
